Measurements taken from patent US20160195533A1, “METHOD FOR SCREENING EMT INHIBITOR” (Medicinal Bioconvergence Research Center, priority 2015, published 2016).

Key:
[1] = test system: EPRS (A549 cells); test: Immunoblotting of Snail1 and EMT-related markers after EPRS knock-down using siRNA; format: cell-based, human; conditions: si-EPRS vs si-control, with or without 10 ng/ml TGF-β1 for 1 hour or 48 hours, cytoplasm and nucleus
Description: Human EPRS gene specific siRNA (si-EPRS) including a sense strand of SEQ ID NO: 23 and an antisense strand of SEQ ID NO: 24, and non-silencing control siRNA (si-control, Catalog Number: 4390843) were purchased from Invitrogen Silencer Select siRNAs products.
Cells were lysed with lysis buffer (20 mM Tris-HCl (pH 8.0) buffer containing 150 mM NaCl, 1% Triton X-100, 1 mM EDTA, 10% glycerol, and protease inhibitor) and collected in a 1.5 ml tube and incubated in 4° C. with gentle agitation for 15 minutes. Then, centrifuged at 15,000 rpm for 20 minutes in 4° C. and supernatants were collected and quantified by using Bradford reagent. After 5×SDS sample buffer was added, each sample were boiled in 100° C. for 5 minutes. Protein samples were separated by SDS-PAGE, transferred to nitrocellulose membrane, and immunoblotted with specific antibodies. The blots were then reacted with horseradish peroxidase-coupled anti-mouse and anti-rabbit (Pierce) IgG secondary antibody. Signals were developed with ECL-PLUS detection reagent (GE healthcare lifesciences).
The antibodies specific to the respective marker proteins, used in the present experiment, are as follows: StrepMAB classic-HRP (IBA), Monoclonal anti-FLAG M2-HRP (Sigma), anti-Snail1 (Cell signaling), anti-Slug (Cell signaling), anti-L13a (Cell signaling), anti-p-Smad2 (Cell signaling), anti-p-Smad3 (Cell signaling), anti-E-cadherin (Cell signaling), anti-N-cadherin (Cell signaling), anti-HDAC1 (Bio vision), anti-β-actin (SCBT), anti-Tubulin (Sigma), anti-HSP90 alpha/β (SCBT), anti-p84 (SCBT), and anti-HA (SCBT). The anti-EPRS antibody was prepared through a conventional procedure by which the EPRS protein represented by SEQ ID NO: 1 was injected into a New Zealand white rabbit to cause an immune response, thereby obtaining an antibody.
It was verified how the reduced EPRS affects Snail1 and EMT progress, through EPRS knock-down experiment using siRNA. For each experimental group, […] cells were treated with si-control or si-EPRS, and treated with or without 10 ng/ml of TGF-β1 for 1 hour or 48 hours. […]

[2] = test system: A549 cells; test: Cell invasion assay (Matrigel invasion chamber) after EPRS knock-down; format: cell-based; conditions: si-EPRS vs si-control, groups treated with and without TGF-β1 (10 ng/ml, 12 hours)
Description: Cell invasion assay using A549 cells were conducted in the Matrigel invasion chamber manufactured by BD Co. According to the manufacturer's protocol, the matrigel was rehydrated for two hours and 750 μl of the serum-free RPMI was located in a lower chamber. The A549 cells were trypsinized, and then centrifuged at 1,000 rpm for 5 minutes. The serum-free RPMI was added to the cells to prepare a suspension. Then, 1×10^5 cells were put in the upper chamber, and then incubated in a CO2 incubator at 37° C. for 12 hours. The membrane was washed two times with PBS, and the cells were fixed using PBS containing 70% methyl alcohol. Then, the membrane was washed three times with PBS, and then the cells were stained with hematoxylin (Sigma). The membrane was washed several times with distilled water, and then immobilized cells above were removed using cotton swabs. Then, the membrane was mounted on the Gel Mount (Biomeda). For counting moving cells, three randomly selected regions were magnified through the microscope. All samples were repeatedly tested three times.
Here, the groups treated with TGF-β1 were prepared by treatment at a concentration of 10 ng/ml for 12 hours.

[3] = test system: A549 cells; test: Cell migration assay (Transwell) after EPRS knock-down; format: cell-based; conditions: si-EPRS vs si-control, groups treated with and without TGF-β1 (10 ng/ml, 12 hours)
Description: Cell migration assays with A549 cells were performed in Transwell chambers ([…] pore, Costar). Fibronectin (10 μg/ml, BD Biosciences) was coated on the membrane and 700 μl serum-free RPMI was placed in the bottom chamber. After A549 cells were trypsinized and centrifuged at 1,000 rpm for 5 minutes, serum-free RPMI was added to the cells for suspension. Then, 1×10^5 cells were dropped into 24-well Transwell chambers and incubated for 12 h at 37° C. in a CO2 incubator. After washing the membrane twice with PBS, 70% methyl alcohol in PBS was used for cell fixation. PBS washing was performed three times afterwards and hematoxylin (Sigma) was used for cell staining After washing the membrane with distilled water several times, non-migrant cells from the top were removed by using cotton swab. Then, the membranes were mounted with Gel Mount (Biomeda). For counting migrant cells, three randomly picked places were magnified with microscopes in high-power fields (×10, and ×20). All samples were performed in triplicate.
Here, the TGF-β1 treatment groups were treated at a concentration of 10 ng/ml for 12 hours.

[4] = test system: binding between EPRS and Snail1; test: Endogenous immunoprecipitation of EPRS with Snail1 immunoblot in TGF-β1-treated cells; format: cell-based; conditions: A549 cells, TGF-β1 0, 1, 10, 20 ng/ml for 48 hours, cytoplasm and nucleus fractions
Description: For the detection of endogenous EPRS interaction with Snail1 in nucleus and cytosol, the protein extracts were incubated with protein A agarose (Life technologies) for 30 minutes on ice, and then centrifuged to remove nonspecific IgG binding proteins. The pre-cleared supernatants were mixed with anti-EPRS antibody, incubated the mixture for 2 h at 4° C. with gentle agitation, added protein A agarose for 2 h, and centrifuged. After washing the precipitates with the cold lysis buffer 3-5 times, the precipitates were dissolved in the 2×SDS sample buffer and separated by SDS-PAGE.
The interaction between EPRS and Snail1 were verified at the endogenous level of cytoplasm and nucleus. A549 cells were treated with TGF-β1 of different concentrations (0, 1, 10, 20 ng/ml) for 48 hours, fractionated into the cytoplasm and the nucleus, and then subjected endo-IP using protein A-agarose beads (Invitrogen) and EPRS antibody.

Substance | E-cadherin protein level (immunoblot) [1] | Snail1 protein level (immunoblot) [1] | p-SMAD3 protein level (immunoblot) [1] | cell invasion [2] | cell migration [3] | binding between EPRS and Snail1 (endo-IP, Snail1 immunoblot) [4]
si-EPRS: Human EPRS gene specific siRNA including a sense strand of SEQ ID NO: 23 and an antisense strand of SEQ ID NO: 24 (sense CGAUGUCAGCAUUUCCGUUTT; antisense AACGGAAAUGCUGACAUCGTC; chemistry not given here) | increased | reduced | reduced | reduced | reduced | 
TGF-β1: Growth factor purchased from R&D systems, used to induce EMT |  |  |  |  |  | the higher the concentration of TGF-β1, the stronger the binding between EPRS and Snail1
